From patent US5856318A (priority 1997, dated 1999)

Legend:
[1] = test system: NMDA receptor; conditions: C. Carter et al, J. Pharm Exp. Ther. 1988; cited from earlier work
[2] = target: T1, sigma receptor (Cavia porcellus, UniProt Q60492); type: binding, guinea pig; conditions: read-out: Ki([3H](+)-Pent)
T1 construct: Crude P2 membrane fractions were prepared from frozen; tissue Pel-Freeze, Rogers, Ark; (frozen guinea pig brains); host or cells: guinea pig brain minus cerebella, crude synaptosomal (P2) membranes
T1 sequence (Q60492 whole entry): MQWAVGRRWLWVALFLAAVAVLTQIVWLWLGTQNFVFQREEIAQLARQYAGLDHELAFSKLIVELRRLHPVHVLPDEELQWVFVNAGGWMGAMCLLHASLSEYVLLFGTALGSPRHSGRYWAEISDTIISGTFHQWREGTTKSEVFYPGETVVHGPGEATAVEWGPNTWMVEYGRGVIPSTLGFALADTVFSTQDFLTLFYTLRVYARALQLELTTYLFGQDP

Q: For “1-(4-chlorophenyl)-2-[1-(4-fluorophenyl)-piperidinyl]ethanol”, which NMDA receptor antagonism [1] is on record?
A: non-competitive NMDA receptor antagonists

Q: For `Clc1ccc(CCN2CCCC(N3CCCC3)C2)cc1Cl` (stereo not drawn) [Compound No. 1, 3-(1-Pyrrolidinyl)-1-[2-(3,4-dichlorophenyl)ethyl]piperidine], which Ki [2] is on record?
A: 3.56 ± 1.56 nM

Q: For `CC(C(O)c1ccc(O)cc1)N1CCC(Cc2ccccc2)CC1` (stereo not drawn) [ifenprodil], which NMDA receptor antagonism [1] is on record?
A: non-competitive NMDA receptor antagonists
